{
  "source": "patent US20180153859A1",
  "about": "“METHODS OF TREATING OR PREVENTING COGNITIVE IMPAIRMENT USING INDANE ACETIC ACID DERIVATIVES BASED ON APOE4 GENOTYPE” (T3D Therapeutics, Inc., priority 2016, published 2018)",
  "test_system": "mild to moderate severity Alzheimer's patients",
  "assay": "ADAS-cog11 cognitive test in Alzheimer's patients stratified by ApoE4 genotype (trial NCT02560753)",
  "format": "in vivo, human",
  "settings": "for cognitive improvement (ADAS-cog11 score change): D1-D14 and D1-D21",
  "method": "Table 8c compares the average ADAS-cog11 score of all subjects, treated at all doses of T3D-959 in trial NCT02560753 (ClinicalTrials.gov), stratified by ApoE4 genotype and compares those scores with the average score of the group of subjects dosed at 3 mg, 10 mg, and 30 mg/d. ADAS-cog11 score change from day 1 (pre-dosing) to day 14 (D1-D14, end of treatment) and from day 1 to day 21 (D1-D21, followup) are shown.\nShown in this table are ADAS-cog11 cognitive test score changes from before dosing on day 1 of treatment (D1) to end of drug treatment on Day 14 (D14) and at follow-up 7 days post-dosing on Day 21 (D21). Drug treatment of mild to moderate severity Alzheimer's patients (MMSE=14-26) with T3D-959 was for 14 days q.d. at 3 mg, 10 mg, 30 mg or 90 mg (n=number of subjects evaluable at each dose). The ADAS-cog11 test score changes at each dose were stratified by ApoE4 genotype [E4=one or two ApoE4 alleles, Non-E4=no ApoE4 alleles].\nADAS-cog score change from day 1 to day 14 (D1-D14) and from day 1 to day 21 (D1-D21) are shown.\nAdult human subjects who were tested for the presence of the ApoE4 gene (one or two E4 alleles) and had Alzheimer's disease were tested with the compound of the invention ((1S)-5-{5-ethyl-2-(4-methoxyphenyl)-1,3-oxazol-4-yl]ethoxy}-2,3-dihydro-1H-inden-1-yl) acetic acid, sodium salt. Subjects either lacked ApoE4 alleles (non-E4) or had one or two ApoE4 alleles (E4).",
  "data": [
    {"smiles": "CCc1oc(-c2ccc(OC)cc2)nc1CCOc1ccc2c(c1)CC[C@H]2CC(=O)[O-].[Na+]", "values": [
      {"measurement": "most effective / required daily dose for cognitive improvement", "setting": "AD subjects with one or two ApoE4 alleles", "result": "≥ 30", "unit": "mg"},
      {"measurement": "most effective daily dose for cognitive improvement", "setting": "ApoE4 non-carrier AD subjects", "result": "3 to 30", "unit": "mg qd"},
      {"measurement": "cognitive improvement (ADAS-cog11 score change)", "setting": "ApoE4 non-carriers, 3 mg, 10 mg and 30 mg/d q.d. for 14 days", "result": "showed improvement in cognition"}
    ]},
    {"smiles": "CCc1oc(-c2ccc(OC)cc2)nc1CCOc1ccc2c(c1)CC[C@H]2CC(=O)[O-].[Na+]", "note": "[Example T3D-959]", "values": [
      {"measurement": "cognitive improvement (ADAS-cog11 score change)", "setting": "ApoE4 carriers (one or two ApoE4 alleles), 30 mg and 90 mg/d q.d. for 14 days", "result": "improvement"},
      {"measurement": "cognitive improvement (ADAS-cog11 score change)", "setting": "ApoE4 non-carriers, 3 mg, 10 mg and 30 mg/d q.d. for 14 days, acetic acid, sodium salt", "result": "greater cognitive improvement"}
    ]}
  ]
}
